Measured values as given in patent US20250353853A1, “FLAVIVIRUS INHIBITORS” (IRBM S.P.A., priority 2022, published 2025).
Like-named read-outs stand apart in the source and are kept apart here.

How the values were obtained:
[1] = target: West Nile Virus (WNV) NS2B-NS3 protease (West Nile virus (WNV), UniProt P06935); assay: WNV Protease Inhibition Assay; type: biochemical
From the text: WNV Protease Inhibition Assay

[2] = system: ZIKV replicon in Vero cells; assay: ZIKV Replication Inhibition Assay (replicon, NanoLuc); conditions: Zika virus, Vero, 72 h, read-out: Zika Replicon EC50
[3] = 2 nM protease, 10 μM pERTKR-AMC substrate, read-out: WNV Protease IC50

Sequence of West Nile Virus (WNV) NS2B-NS3 protease (P06935 1502-1679 limits assumed): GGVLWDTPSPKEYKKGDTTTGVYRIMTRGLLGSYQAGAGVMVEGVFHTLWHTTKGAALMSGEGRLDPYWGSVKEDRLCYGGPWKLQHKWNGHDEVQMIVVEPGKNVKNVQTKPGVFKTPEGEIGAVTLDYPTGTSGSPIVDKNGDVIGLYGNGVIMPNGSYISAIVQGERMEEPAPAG
Sequence of West Nile Virus (WNV) NS2B-NS3 protease (P06935 1371-1501 partner limits assumed): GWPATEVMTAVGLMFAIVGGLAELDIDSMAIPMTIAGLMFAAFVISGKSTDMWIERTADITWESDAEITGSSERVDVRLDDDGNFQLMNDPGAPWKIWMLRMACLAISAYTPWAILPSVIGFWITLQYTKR

SMILES | IC50 [1] | EC50 [2] | IC50 [1, 3]
Cc1ncnc(C)c1-c1ccc(C[n+]2cc([N-]C(=O)Nc3cccc(C4CC4)c3)on2)nc1 [Example 182, ((3-cyclopropylphenyl)carbamoyl)(3-((5-(4,6-dimethylpyrimidin-5-yl)pyridin-2-yl)methyl)-1,2,3-oxadiazol-3-ium-5-yl)amide] | 100 to 1000 nM | 100 to 1000 nM | 
Cn1cc(-c2cccc(C[n+]3cc([N-]C(=O)Nc4cccc(C(F)(F)F)c4)on3)c2)cn1 [Example 52, (3-(3-(1-methyl-1H-pyrazol-4-yl)benzyl)-1,2,3-oxadiazol-3-ium-5-yl)((3-(trifluoromethyl)phenyl)carbamoyl)amide] | 100 to 1000 nM | 100 to 1000 nM | 
Cc1noc(C)c1-c1ccc(C[n+]2cc([N-]C(=O)Nc3ccc(Cl)c(C(F)(F)F)c3)on2)nc1 [Example 157, ((4-chloro-3-(trifluoromethyl)phenyl)carbamoyl)(3-((5-(3,5-dimethylisoxazol-4-yl)pyridin-2-yl)methyl)-1,2,3-oxadiazol-3-ium-5-yl)amide] | 1000 to 20000 nM | 100 to 1000 nM | 
O=C([N-]c1c[n+](C(c2ccccc2)C(F)(F)F)no1)Nc1cccc(C(F)(F)F)c1 (stereo not shown) [Example 44, (3-(2,2,2-trifluoro-1-phenylethyl)-1,2,3-oxadiazol-3-ium-5-yl)((3-(trifluoromethyl)phenyl)carbamoyl)amide] | 1000 to 20000 nM | > 20000 nM | 
Cc1cnccc1-c1ccc(C[n+]2cc([N-]C(=O)Nc3cccc(C(F)(F)F)c3)on2)nc1 [Example 163, (3-((3′-methyl-[3,4′-bipyridin]-6-yl)methyl)-1,2,3-oxadiazol-3-ium-5-yl)((3-(trifluoromethyl)phenyl)carbamoyl)amide] | 100 to 1000 nM | < 100 nM | 
Cc1nn(C)c(C)c1-c1ccc(C[n+]2cc([N-]C(=O)Nc3cncc(C(F)(F)F)c3)on2)nc1 [Example 147, ((5-(trifluoromethyl)pyridin-3-yl)carbamoyl)(3-((5-(1,3,5-trimethyl-1H-pyrazol-4-yl)pyridin-2-yl)methyl)-1,2,3-oxadiazol-3-ium-5-yl)amide] |  | 100 to 1000 nM | < 100 nM
Cc1nn(C)c(C)c1-c1ccc(C[n+]2cc([N-]C(=O)Nc3cccc(C(F)(F)F)c3)on2)nc1 [Example 143, ((3-(trifluoromethyl)phenyl)carbamoyl)(3-((5-(1,3,5-trimethyl-1H-pyrazol-4-yl)pyridin-2-yl)methyl)-1,2,3-oxadiazol-3-ium-5-yl)amide] |  | 100 to 1000 nM | < 100 nM
Cc1ccncc1-c1ccc(C[n+]2cc([N-]C(=O)Nc3cncc(C(F)(F)F)c3)on2)nc1 [Example 149, (3-((4′-methyl-[3,3′-bipyridin]-6-yl)methyl)-1,2,3-oxadiazol-3-ium-5-yl)((5-(trifluoromethyl)pyridin-3-yl)carbamoyl)amide] | 100 to 1000 nM | 100 to 1000 nM | 
COc1ncc(-c2ccc(C[n+]3cc([N-]C(=O)Nc4cncc(C(F)(F)F)c4)on3)nc2)c(C)n1 [Example 133, (3-((5-(2-methoxy-4-methylpyrimidin-5-yl)pyridin-2-yl)methyl)-1,2,3-oxadiazol-3-ium-5-yl)((5-(trifluoromethyl)pyridin-3-yl)carbamoyl)amide] | 100 to 1000 nM | 100 to 1000 nM | 
Cc1noc(C)c1-c1ccc(C[n+]2cc([N-]C(=O)Nc3ncc(C(F)(F)F)s3)on2)nc1 [Example 166, (3-((5-(3,5-dimethylisoxazol-4-yl)pyridin-2-yl)methyl)-1,2,3-oxadiazol-3-ium-5-yl)((5-(trifluoromethyl)thiazol-2-yl)carbamoyl)amide] | 100 to 1000 nM | < 100 nM | 
O=C([N-]c1c[n+](Cc2ccc(Br)cc2)no1)Nc1cccc(C(F)(F)F)c1 [Example 19, (3-(4-bromobenzyl)-1,2,3-oxadiazol-3-ium-5-yl)((3-(trifluoromethyl)phenyl)carbamoyl)amide] |  | 100 to 1000 nM | < 100 nM
